This note sets out measurements from PubChem BioAssay (NCI).

Common to all, as to assay: NCI tumour cell line growth inhibition, 48 h
Test [1] deals with SN12C renal.
For test [2], the system named is SF-295 CNS.
The subject of test [3] is RPMI-8226 leukemia.
For test [4], the system named is COLO 205 colon.
In test [5] the test system is HCT-116 colon.
The test system of test [6] is A549 NSCLC.
Test [7] has as its system ACHN renal.
In test [8] the test system is SK-MEL-2 melanoma.
In test [9] the test system is KM12 colon.
The test system of test [10] is DU-145 prostate.

“And” between values parts separate entries of the source, which are not always exact repeats. Identical values can stand only once.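 Cells were grown in 96-well plates and exposed to each compound for 48 hours at five concentrations; endpoints were interpolated linearly between bracketing concentrations, or set to the highest concentration if not reached. Abbreviation: GI50, concentration required for 50% inhibition of growth. At the TGI there is no net growth.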

For the compound `O=C(Nc1cccc(C(F)(F)F)c1)Nc1cc(S(=O)(=O)NC2CC2)ccc1-c1ccsc1`, the GI50 in [1] was 4.33 µM; in test [2], 3.16 µM; in [3] it was 2.57 µM; in test [4], 2.71 µM; in test [5] it was 3.51 µM; in test [6], 3.68 µM. Also, the GI50 is 1.83 µM in [7], 3.15 µM in [8], 4.46 µM in test [9] and 5.41 µM in test [10]. Further, the TGI in test [1] stood at 18.3 µM; in test [2], 11.8 µM; in test [3], 8.22 µM; in test [4], 7.41 µM; in [5], 13.4 µM; in [6], 14.7 µM. The TGI was found to be 3.61 µM in test [7], 13.7 µM in test [8], 16.1 µM in test [9] and 20.3 µM in test [10].

With `Cc1ccc(S(=O)(=O)NCc2cccc([N+](=O)[O-])c2)cc1`, the TGI in test [1], in [2], in test [3], in test [4], in test [5] and in test [6] was above 100 µM throughout. For the same compound, the TGI in test [7], in test [8], in [9] and in test [10] was above 100 µM throughout.

`C=CCCC1(CCP(=O)(c2ccccc2)c2ccccc2)OCCO1`: the TGI in test [1], in test [2], in test [3], in test [4], in [5] and in test [6] was above 100 µM throughout. In addition, the TGI in test [7], in [8], in test [9] and in [10] was above 100 µM each time.

With `Oc1ccc(/C=N/Nc2nnc(N/N=C/c3ccc(O)cc3O)c3ccccc23)c(O)c1`, the GI50 was 0.507 µM in test [1]; 0.173 µM in test [2]; 0.345 µM in test [3]; 0.897 µM in [4]; 0.348 µM in test [5]; 0.67 µM in test [6]. Besides, the GI50 in test [7] was 0.358 µM; in test [8], 0.674 µM; in [9] it was 0.375 µM; in test [10], 0.432 µM. Also, the TGI was 6.72 µM in test [1]; 0.813 µM and 0.597 µM in [2]; 0.533 µM and 1.77 µM in test [3]; 2.96 µM in [4]; 2.16 µM in test [5]; above 28.7 µM in test [6]. In addition, the TGI in test [7] is 0.422 µM and 3.94 µM; in test [8], 0.623 µM and 2.57 µM; in [9], 0.8 µM and 1.54 µM; in test [10], 0.831 µM and 5.99 µM.

With `CC(C)C12CCC3(CCC4C(C)(C(=O)O)CCCC4(C)C3C1)C(CN)C2` (centres undefined), the TGI in test [1] is 43.3 µM; in [2] it was above 100 µM; in test [3], 42 µM; in [4], 33.2 µM; in [5], 34.2 µM; in test [6], above 100 µM. In addition, the TGI in test [7], in test [8], in test [9] and in test [10] was above 100 µM throughout.

`Clc1ccc(N=CNc2ccc(-c3nc4ccccc4[nH]3)cc2)cc1`: the GI50 is above 100 µM in [1]; 6.18 µM in [2]; 7.57 µM in test [3]; 3.99 µM in test [4]; above 100 µM in [5]; above 100 µM in test [6]. Besides, the GI50 in test [7] was above 100 µM; in test [8] it was 76.6 µM; in test [9], 0.691 µM; in test [10], 59.2 µM. Besides, the TGI in test [1], in test [2], in test [3], in test [4], in test [5] and in test [6] was above 100 µM in each case. The TGI was above 100 µM in test [7], above 100 µM in [8], 18.5 µM in test [9] and above 100 µM in test [10].

For the compound `CC(=O)OCc1cc2c(s1)C(=O)c1sccc1C2=O`, the TGI in [1] was 0.261 µM; in [2] it was 0.162 µM; in test [4], 3.03 µM; in [5], 3.38 µM; in test [6] it was 0.368 µM; in test [7], 0.246 µM. The TGI in [8] turned out to be 0.249 µM; in test [9] it was 0.562 µM; in test [10], 0.104 µM.

As to `CC(C)c1nc(Cl)c(Cl)c(Cl)n1`, the TGI in test [1] is 16.9 µM; in test [2] it was 29 µM; in test [3], 14.7 µM; in [4], 11.9 µM; in test [5] it was 14.2 µM; in test [6] it was above 41.3 µM. The TGI in test [7] came out at 2.51 µM; in [9] it was 23.3 µM; in [10], 20.3 µM.

`COc1ccc(C[C@H](N)C(=O)N[C@@H]2[C@@H](CO)OC(n3cnc4c(N(C)C)ncnc43)[C@@H]2O)cc1` (some centres undefined): the TGI was 1.31 µM in [1]; 2.21 µM in test [2]; 2.04 µM in test [3]; 0.756 µM in test [4]; 0.628 µM in test [5]; 3.19 µM in test [7]. The TGI in test [8] came out at 1.23 µM; in test [9], 1.08 µM; in test [10] it was 2.53 µM. The GI50 was 0.655 µM in test [2]; 0.292 µM in [3]; 0.218 µM in test [4]; 0.152 µM in test [5]; 0.363 µM in test [9]; 0.458 µM in test [10].

As to `N#Cc1c(N)nc(N2CCOCC2)c(C#N)c1-c1ccc(Cl)cc1Cl`, the GI50 is 16.1 µM in test [1]; 19 µM in [2]; 19.5 µM in test [3]; 16.6 µM in [4]; 22.1 µM in test [5]; 20.2 µM in [6]. The GI50 in test [8] is 13.6 µM; in test [10], 24.6 µM. For the same compound, the TGI in [1] stood at 43.3 µM; in test [2], 51.8 µM; in test [3] it was 56.9 µM; in test [4], 40.6 µM; in test [5], 54.7 µM; in [6], 54.9 µM. Further, the TGI was determined as 32.4 µM in test [8] and 81 µM in [10].
